The text below walks through data of ChEMBL document CHEMBL4342447, “l-Phenylalanine Alters the Privileged Secondary Metabolite Production in the Marine-Derived Fungus Trichoderma erinaceum F1-1” (J Nat Prod, 2020).

Each structure is given as a SMILES string.

One assay concerns MDA-MB-435. Briefly: Cytotoxicity against human MDA-MB-435 cells assessed as reduction in cell viability by MTT assay. The class given is functional, cell-based. In general terms: Tetrazolium dyes change colour on reduction, which living cells bring about.
A further assay relates to A549. Briefly: Cytotoxicity against human A549 cells assessed as reduction in cell viability by MTT assay. The class given is functional, cell-based.

Usually IC50 stands for the midpoint of a concentration-inhibition curve. For the compound `CCC(=O)Oc1cc(C)cc(Oc2cc(C)cc(OC)c2)c1`, the IC50 in the assay with MDA-MB-435 is 31.9 µM. On the same count and under the same terms, to `COc1cc(C)cc(Oc2cc(C)cc(OC)c2)c1` belongs 12.5 µM. For `CC(C)(c1ccc(O)cc1)c1ccc(OCC(O)COc2ccc(C(C)(C)c3ccc(O)cc3)cc2)cc1`, the concentration for half-maximal inhibition (IC50) came out at 18.4 µM in the assay with A549 and 22.3 µM in the assay with MDA-MB-435.

Turning to `COc1cc(C)cc(Oc2cc(C)cc(O)c2)c1` [CORDYOL E], the half-maximal inhibitory concentration (IC50) with MDA-MB-435 worked out at 41.1 µM.
